Measurements published in BindingDB's records for doi:10.1016/j.jmb.2006.12.004 (University of Marburg, 2007).

Molecular target: Aldo-keto reductase family 1 member B1 (Homo sapiens, UniProt P15121)
Test: Enzyme Inhibition Assay
Details: pH 6.2; 25 °C
Method: The in vitro inhibitory activity of the candidate molecules was determined by recording the decrease of the NADPH absorbance upon enzymatic reduction of […]. The absorbance at 340 nm was monitored with a BMG plate reader. The program GraFit (Version 4.0) was used for fitting the IC50 values.

Row | Structure (SMILES) | IC50 [µM]
1 | O=C(O)CCCc1nc(-c2ccccn2)no1 [4-[3-(pyridin-2-yl)-1,2,4-oxadiazol-5-yl]butanoic acid] | 12.4
2 | O=C(O)CSc1nnc(-c2ccc([N+](=O)[O-])o2)o1 [2-{[5-(5-nitrofuran-2-yl)-1,3,4-oxadiazol-2-yl]sulfanyl}acetic acid] | 4.1
3 | O=C(O)CCCc1nc(-c2ccc(Cl)cc2)no1 [Ligand 8] | 17.7
4 | O=C(O)CCCc1nc(-c2cccc([N+](=O)[O-])c2)[n-][o+]1 [Ligand 1] | 0.53
